Source: patent US20040019066A1, “Methionine salvage pathway in bacillus” (priority 2002, published 2004)

Columns and labels:
[1] = test system: B. subtilis 168 and mtn region mutants; assay: Growth on MTR as sole sulfur source (ED1 minimal medium plates); format: cell-based, Bacillus subtilis; details: mtnX mutant, strain BFS1852, in the absence of IPTG
[2] = test system: B. subtilis 168 and mtn region mutants; details: Bacillus subtilis; reference [5]; cited from earlier work
[3] = test system: Strain BSHP7014 (mtnW:lacZ amyE::pxyl mtnXYZ); assay: Toxicity of MTR for BSHP7014 strain (paper disc on ED1 minimal medium plates); format: cell-based, Bacillus subtilis
Procedure: Toxicity of MTR for BSHP7014 strain. Strain BSHP7014 (mtnW:lacZ amyE::pxyl mtnXYZ) was grown on ED1 minimal medium plates in the presence of sulfate as sulfur source (panel A) or in the absence of any added sulfur source (agar as sole sulfur source, panel B). Xylose was added to the medium in order to trigger the expression of mtnXYZ from the pxyl promoter, 10 μl of methionine (met) or MTR was adsorbed on paper discs and plates were incubated over-night at 37° C. Methionine was used as a control for growth and/or toxicity of the sulfur source.
Two genes in the pathway are dispensable, mtnV and mtnX. The first one encodes a transaminase of which there are nine putative paralogs in the genome of B. subtilis (YwfG, AlaT, AspB, PatA, YhdR, YdfD, PatB, YisV, and HisC). In the same way, MtnX (YkrX) is a member of the phosphatase family pfam00702 ([12], FIG. 6), and therefore of a ubiquitous class of hydrolases (several phosphatase genes, in particular are present in the genome of B. subtilis). This is likely to account for the lack of phenotype under our growth conditions. […] In contrast, we discovered that MTR is toxic when the distal genes are present (when used as sole sulfur source or in the presence of sulfate, see FIG. 7). Because of the weak phenotype of a mtnZ mutant and the absence of phenotype of a mtnX mutant, we can be confident that MtnY acts before MtnW (this is a common feature in operons, where it is generally observed that the more distal genes code for proteins acting in the more proximate steps of the pathway).
Bacterial strains and plasmids, and growth media: E. coli and B. subtilis strains as well as plasmids used in this work are listed in Table 3. E. coli TG1 and XL1-Blue were used for cloning experiments (TG1 for single cross-over recombination and XL1-Blue for double cross-over recombination). Despite the fact that there are no public regulations yet in this domain in China, all experiments were performed in accordance with the European regulation requirements concerning the contained use of Genetically Modified Organisms of Group-I (French agreement N^o 2735). […] In the latter case, 10 [μl of the sulfur source under investigation was applicated onto paper discs (MTR, 200 mM stock solution and methionine, 100 mM stock solution) deposited at the center of the plate, after bacteria had been uniformly spread at the surface of the plate, and growth was measured around the disK. […] The optical density (OD) of bacterial cultures was measured at 600 nm. […]

In the case of `CSC[C@@H](O)[C@@H](O)[C@@H](O)C=O` [MTR, methylthioribose], the “Growth on MTR as sole sulfur source” value [1] is given as “failed to grow”, the “MTR as sulfur source” value [2] is given as “excellent sulfur source” and the “Toxicity of MTR to the cell” value ([3]; mtnU mutant, mtnY functional) is given as “toxic”. For the same compound, the “Influence of MTR on sulfate supplemented plates” value ([3]; mtnW inactivated with a polar effect on the distal genes) was “lack of influence” and the “Toxicity of MTR to the cell” value ([3]; mtnW mutant with distal genes mtnXYZ present, MTR as sole sulfur source or in the presence of sulfate) was “extremely toxic”.
